Data: article PMC6530997, “Asymmetry in catalysis by Thermotoga maritima membrane-bound pyrophosphatase demonstrated by a nonphosphorus allosteric inhibitor” (Science Advances, 2019)
Like-named read-outs stand apart in the source and are kept apart here.

Tests used:
TmPPase [1] = molecular target: T1, TmPPase (Thermotoga maritima, UniProt Q9S5X0); assay: TmPPase activity inhibition, molybdenum blue 96-well plate assay; format: biochemical; settings: for activity against TmPPase (in words): SAR discussion; for IC50: purified TmPPase in DDM, 71°C, 2 min; for fold less active / weaker than ATC: IC50 relative to ATC
T1 construct: His; made in house; host or cells: Saccharomyces cerevisiae strain BJ1991
Source text: The screening process that led to the discovery of compound 1 (ATC) will be described in more detail elsewhere. Briefly, we tested compounds using a recently developed 96-well plate assay with TmPPase as a model system ([37]). The screening collections included compounds synthesized in our laboratories. The identification of ATC as an inhibitor was followed by the test of analogs 2 to 5. ATC and its analogs were initially developed for their antimicrobial, antiviral, and anticancer activities, as reported elsewhere ([38]).
(§1) TmPPase activity, compound screening, and kinetic experiments were done using the molybdenum blue reaction method in a purified protein solubilized in DDM ([37]). Initial reaction rates of TmPPase were determined using PPi as the substrate and ATC as the inhibitor at varying concentrations. The concentration of MgCl2 and Na4PPi required to maintain 5 mM free Mg^2+ at pH 8.0 was approximated as described previously ([41]). The reaction was done in reaction buffer [60 mM tris-HCl (pH 8.0), 5 mM free Mg^2+, 100 mM KCl, and 10 mM NaCl] at 71°C for 2 min. We chose a 2-min reaction time as it still produces a reaction product in a linear range (fig. S7).

TmPPase [2] = molecular target: T1, TmPPase; assay: Kinetic analysis of ATC inhibition of PPi hydrolysis by TmPPase; format: biochemical; settings: PPi conc. 1721
[3] = system: Plasmodium falciparum strain 3D7; assay: Anti-plasmodial activity assay (SYBR Green I, 72 h); format: cell-based
Method: Size-exclusion chromatography – Multi angle laser light scattering (SEC-MALLS) 50  µg of TmPPase purified in DDM with IDP (1 mM) and IDP+ATC (1 mM each) were run through a Superdex 200 10/300 GL equilibrated with a buffer containing 50 mM MES-NaOH pH 6.5, 50 mM KCl, 5 mM MgCl2, 2 mM DTT and 0.05% DDM using a HPLC-system (Shimadzu).
The eluted samples from the column were analysed using UV-absorbance, refractive index (Optilab rEX, Wyatt) and multi angle laser light scattering (miniDAWN TREOS, Wyatt) detectors and the enzyme molecular mass was calculated using ASTRA software (Wyatt).
Anti-plasmodial activity assay
For the in vitro anti-plasmodial activity assay, Plasmodium falciparum strain 3D7 was maintained in culture as described previously (56). Briefly, parasites were cultured in O+ human erythrocytes at 5% haematocrit in RPMI-1640 medium supplemented with 0.5% Albumax II (Gibco, Carlsbad, CA, USA), 200 μM hypoxanthine (Sigma, St. Louis, MO, USA) and 20 μg ml-1 gentamycin (Gibco). […]
Fifty microliters of each dilution were mixed in a 96-well plate with 150 µl of 2% haematocrit of 0.5% parasitemia (ring stage). After 72 h incubation at 37 °C, the parasite growth was quantified using fluorescent SYBR Green I®-based assay as described (58). The half-maximal inhibitory concentration (IC50) of the test compound was assessed by non-linear regression in Prism 7 (GraphPad Software). […]

[4] = molecular target: PfPPase-VP1 (in membrane) (Plasmodium falciparum, UniProt Q8IKR1); assay: Inhibition of PfPPase-VP1 in isolated membranes; format: biochemical
Source text: (§2) Fig. S6. Effect of ATC on growth of P. falciparum and on PfPPase. (A) Inhibition effect of ATC on PfPPase-VP1 (in membrane) from P. falciparum expressed in insect cell baculovirus expression system (method and further analysis will be described in more detail elsewhere). ATC […]
(§3) (B) ATC has no anti-plasmodial […]
(§4) activity up to 100  µM. (C) Anti-plasmodial activity of artemisinin, as a positive control.
(§5) (1 picture or pasted object on this page, not shown here)

[5] = system: PfPPase-VP1 (in membrane); assay: Inhibition of PfPPase-VP1 in isolated membranes; format: biochemical; settings: PfPPase IC50 versus TmPPase IC50
Source text: as §2, §3, §4, §5

TmPPase [6] = molecular target: T1, TmPPase; assay: Kinetic analysis of ATC inhibition of PPi hydrolysis by TmPPase; format: biochemical
Method: As ATC is a potent inhibitor, we further characterized its effect on the rate of substrate (PPi) hydrolysis using a range of ATC concentrations (0.0 to 12.0 μM). We performed the kinetic assay using PPi concentrations from 0 to 1714 μM at 71°C with a single-point measurement at 2 min (Fig. 4D), having shown that this is within the linear range for initial rates (fig. S7).
The model is a variant on that used by Artukka et al. ([23]) and is required as there is half-of-the-sites reactivity. The sum of squares when fitting the inhibition curves with an ATC monomer (i.e., n = 1 in Fig. 5) is 5268, and the SD of the residuals (Sy.x) is 4.3; when fitting an ATC dimer, the values are 855 and 1.8, respectively. […] This means that ATC binds as a dimer to TmPPase.
as §1
For analysis, we used a variant of Artukka and co-workers’ method ([23]), which assumes that the two active sites in an mPPase dimer interact allosterically, with the addition of inhibitor binding to the two active sites (Fig. 5). E2 represents the dimeric enzyme, S is the substrate (Na4PPi), I is the inhibitor (ATC), and n is the number of ATC molecules bound to the enzyme. KS is a microscopic Michaelis-Menten constant, and kp is the per-site maximum rate for the substrate complex. α is the factor relating the binding of the first substrate molecule (KS) to the binding of the second, β is the factor relating the rate of hydrolysis of the E2S complex (kp) to that of the E2S2 complex, and KI1obs, KI2obs, and KI3obs are the observed inhibition constants for binding to the E2, E2S, and E2S2 complexes.
For the mechanism in Fig. 5 with n = 2 (i.e., only inhibitor dimers bind), the rate Eq. 1 ([42]) is v=(2kp+2βkp[S]/αKs)/2(1+[I]^2/(KI2obs)^2)+(Ks/[S])(1+[I]^2/(KI1obs)^2)+([S]/αKs)(1+[I]^2/(KI3obs)^2) (1) where [S] and [I] correspond to substrate and inhibitor concentrations, respectively, and the equilibrium and Michaelis-type constants are as in Fig. 5. The kinetic data were fit together to obtain all parameter values and their SEs by nonlinear regression as a function of inhibitor (0, 1.0, 2.0, 4.0, 8.0, and 12.0 μM) and substrate (0 to 1714 μM) concentrations using Prism 6.0 (GraphPad Software). Eliminating the KI1 terms had no effect on the overall quality of fit.

[7] = PfPPase-VP1 expressed in insect cell baculovirus system

Chain of PfPPase-VP1 (in membrane) (Plasmodium falciparum, UniProt Q8IKR1) (Q8IKR1 entry or part of it): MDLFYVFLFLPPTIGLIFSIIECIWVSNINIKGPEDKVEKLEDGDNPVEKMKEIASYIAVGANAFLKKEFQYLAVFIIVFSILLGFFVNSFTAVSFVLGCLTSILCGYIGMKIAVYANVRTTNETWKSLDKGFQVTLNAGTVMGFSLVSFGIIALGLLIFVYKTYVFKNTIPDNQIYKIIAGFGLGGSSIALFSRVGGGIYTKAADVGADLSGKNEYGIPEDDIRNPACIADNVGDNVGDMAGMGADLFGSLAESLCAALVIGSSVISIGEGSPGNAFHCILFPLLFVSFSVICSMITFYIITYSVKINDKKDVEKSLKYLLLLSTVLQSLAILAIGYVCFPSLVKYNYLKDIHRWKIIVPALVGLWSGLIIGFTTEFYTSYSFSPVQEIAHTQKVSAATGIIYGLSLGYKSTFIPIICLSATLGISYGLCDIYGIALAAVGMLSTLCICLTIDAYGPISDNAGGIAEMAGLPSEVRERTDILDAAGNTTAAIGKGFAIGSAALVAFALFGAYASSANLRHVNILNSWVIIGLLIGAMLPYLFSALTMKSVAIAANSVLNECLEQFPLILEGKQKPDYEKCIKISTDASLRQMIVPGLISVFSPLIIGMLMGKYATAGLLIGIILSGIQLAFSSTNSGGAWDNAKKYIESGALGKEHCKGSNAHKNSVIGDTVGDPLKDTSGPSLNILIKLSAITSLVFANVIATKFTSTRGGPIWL
T1 sequence (Q9S5X0 whole entry): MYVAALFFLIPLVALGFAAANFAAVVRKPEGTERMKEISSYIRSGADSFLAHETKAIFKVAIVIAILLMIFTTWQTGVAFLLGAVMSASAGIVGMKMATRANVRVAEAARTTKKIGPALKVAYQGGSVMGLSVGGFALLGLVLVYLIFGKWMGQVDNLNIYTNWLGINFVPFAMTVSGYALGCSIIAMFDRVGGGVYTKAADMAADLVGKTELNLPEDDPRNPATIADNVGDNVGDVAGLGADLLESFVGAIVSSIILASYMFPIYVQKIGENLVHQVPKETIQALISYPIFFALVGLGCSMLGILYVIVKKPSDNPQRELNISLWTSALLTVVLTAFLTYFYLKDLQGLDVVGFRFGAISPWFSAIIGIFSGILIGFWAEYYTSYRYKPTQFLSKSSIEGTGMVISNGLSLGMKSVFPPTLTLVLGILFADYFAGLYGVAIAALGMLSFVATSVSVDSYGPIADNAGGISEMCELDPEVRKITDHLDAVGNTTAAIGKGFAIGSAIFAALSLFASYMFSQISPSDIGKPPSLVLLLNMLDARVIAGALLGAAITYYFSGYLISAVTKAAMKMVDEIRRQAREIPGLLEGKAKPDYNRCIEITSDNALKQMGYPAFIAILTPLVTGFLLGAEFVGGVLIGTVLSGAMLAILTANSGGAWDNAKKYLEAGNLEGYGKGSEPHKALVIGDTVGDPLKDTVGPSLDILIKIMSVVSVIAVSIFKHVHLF

In the case of `Nc1nc2ccc(CNC(=O)c3nc4ccccc4[nH]3)cc2s1` [compound 9], the “activity against TmPPase (in words)” value (TmPPase [1]) is reported as “fully inactive” and the IC50 (TmPPase [1]) is reported as over 500 µM.
In the case of `Nc1nc2ccc(CNC(=O)c3cc4ccccc4[nH]3)cc2s1` [ATC, N-[(2-amino-6-benzothiazolyl)methyl]-1H-indole-2-carboxamide], the Hill constant (TmPPase [2]) is reported as 2.0, the IC50 (TmPPase [1]) is reported as 1.7 µM and the “anti-plasmodial activity (in words)” value ([3]; P. falciparum survival assays) is reported as “did not show any anti-plasmodial activity”. For the same compound, the IC50 ([3]; Plasmodium falciparum, P. falciparum 3D7, 72 h, read-out: anti-plasmodial activity, highest concentration without activity) was over 100 µM, the IC50 [4, 7] was 83.6 µM and the logIC50 [4, 7] was 1.9. The IC50 ([4]; isolated P. falciparum membranes, preliminary studies) was about 80 µM, the “fold lower than in T. maritima test system” value [5] was “at least 40 fold” and the mode of inhibition (TmPPase [6]) was “uncompetitive dimeric inhibitor”. The “fold weaker binding to E2S2 than to E2S” value (TmPPase [6]; KI3obs versus KI2obs) was “about 2.5 fold”, the Hill constant (TmPPase [6]; PPi conc. 35) was 2.8 and the Hill constant (TmPPase [6]; PPi conc. 71) was 2.8. It also gave a Hill constant (TmPPase [6]; PPi conc. 142) of 1.9, a Hill constant (TmPPase [6]; PPi conc. 1071) of 2.2 and a Hill constant (TmPPase [6]; PPi conc. 1428) of 1.9. For the same compound, the Hill constant (TmPPase [6]; PPi conc. not printed (line between 142 and 1071)) was 2.2, the Ki (TmPPase [6]; binding to E2 (no substrate), data not shown, read-out: KI1 (mean value when included in the fit)) was at least 250 µM and the “binding to E2 (in words)” value (TmPPase [6]; enzyme without substrate) was “does not bind to E2 at concentrations we are able to achieve”. The Ki (TmPPase [6]; observed inhibition constant for binding to the E2S2 complex, n = 2 (ATC dimer), read-out: KI3obs) was 3.18 ± 0.15 µM, the Ki (TmPPase [6]; observed inhibition constant for binding to the E2S complex, n = 2 (ATC dimer), read-out: KI2obs) was 1.37 ± 0.09 µM and the “Hill coefficient for ATC binding” value (TmPPase [6]; substrate concentrations greater than 100 μM) was 2. The Hill coefficient (TmPPase [6]; very low substrate concentrations (below 100 μM)) was 3.
In the case of `Nc1nc2ccc(CNC(=O)c3ccc[nH]3)cc2s1` [compound 5], the “fold less active / weaker than ATC” value (TmPPase [1]) is reported as “approximately 10 fold”.
For `Nc1nc2ccc(CNC(=O)c3cccs3)cc2s1` [compound 3], the “activity against TmPPase (in words)” value (TmPPase [1]) was “inactive” and the IC50 (TmPPase [1]) was over 500 µM.
`Nc1nc2ccc(CNC(=O)c3ccco3)cc2s1` [compound 4] was tested, and the “fold less active / weaker than ATC” value (TmPPase [1]) was “approximately 10 fold”.
`Nc1nc2ccc(CNC(=O)c3cc4cccc(Br)c4[nH]3)cc2s1` [compound 6] was tested, and the IC50 (TmPPase [1]) was 21.4 µM.
`Nc1nc2ccc(CNC(=O)c3ccccc3)cc2s1` [compound 2] was tested, and the “activity against TmPPase (in words)” value (TmPPase [1]) was “inactive” and the IC50 (TmPPase [1]) was over 500 µM.
